Reference: ChEMBL document CHEMBL5291721, “A preclinical secondary pharmacology resource illuminates target-adverse drug reaction associations of marketed drugs” (Nat Commun, 2023)

Assays:
Glucocorticoid receptor = target: T1, Glucocorticoid receptor (Homo sapiens, UniProt P04150)
T1 sequence (P04150 whole entry): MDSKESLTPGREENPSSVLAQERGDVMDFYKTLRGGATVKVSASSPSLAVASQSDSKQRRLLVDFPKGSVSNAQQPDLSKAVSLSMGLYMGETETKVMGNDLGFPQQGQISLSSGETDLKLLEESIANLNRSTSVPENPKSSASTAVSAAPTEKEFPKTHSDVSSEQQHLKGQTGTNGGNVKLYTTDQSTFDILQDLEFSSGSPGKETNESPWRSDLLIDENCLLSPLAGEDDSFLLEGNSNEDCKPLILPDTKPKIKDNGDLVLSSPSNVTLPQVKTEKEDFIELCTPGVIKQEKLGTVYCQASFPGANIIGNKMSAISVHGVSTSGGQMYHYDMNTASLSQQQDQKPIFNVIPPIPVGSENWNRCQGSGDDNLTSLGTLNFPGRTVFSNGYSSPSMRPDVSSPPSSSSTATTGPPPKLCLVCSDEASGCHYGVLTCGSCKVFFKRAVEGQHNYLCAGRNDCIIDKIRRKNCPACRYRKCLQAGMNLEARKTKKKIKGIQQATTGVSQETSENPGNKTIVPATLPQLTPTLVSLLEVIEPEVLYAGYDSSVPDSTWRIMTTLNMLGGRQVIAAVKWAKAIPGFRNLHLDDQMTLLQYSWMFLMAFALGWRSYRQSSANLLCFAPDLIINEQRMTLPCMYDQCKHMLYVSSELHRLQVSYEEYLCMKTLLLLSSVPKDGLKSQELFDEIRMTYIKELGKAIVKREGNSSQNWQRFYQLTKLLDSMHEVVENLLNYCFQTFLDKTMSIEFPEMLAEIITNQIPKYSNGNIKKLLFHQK

[1] = target: 3',5'-cyclic-AMP phosphodiesterase 4D (Homo sapiens, UniProt Q08499); type: functional
[2] = target: Gamma-aminobutyric acid receptor subunit alpha-1 (Rattus norvegicus, UniProt P62813)
[3] = target: Voltage-gated inwardly rectifying potassium channel KCNH2 (Homo sapiens, UniProt Q12809); type: functional
Adenosine receptor A3 = target: T2, Adenosine receptor A3 (Homo sapiens, UniProt P0DMS8)
T2 sequence (P0DMS8 whole entry): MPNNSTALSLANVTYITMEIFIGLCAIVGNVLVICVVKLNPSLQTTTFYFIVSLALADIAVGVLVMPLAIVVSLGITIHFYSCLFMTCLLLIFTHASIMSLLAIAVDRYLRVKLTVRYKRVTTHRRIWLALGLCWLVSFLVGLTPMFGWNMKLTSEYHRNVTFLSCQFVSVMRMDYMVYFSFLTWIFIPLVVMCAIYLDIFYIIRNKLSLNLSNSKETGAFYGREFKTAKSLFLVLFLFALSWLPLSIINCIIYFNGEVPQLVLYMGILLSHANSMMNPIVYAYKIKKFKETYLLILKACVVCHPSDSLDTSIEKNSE

[4] = target: T3, Muscarinic acetylcholine receptor M2 (Homo sapiens, UniProt P08172); type: functional, cell-based
T3 sequence (P08172 whole entry): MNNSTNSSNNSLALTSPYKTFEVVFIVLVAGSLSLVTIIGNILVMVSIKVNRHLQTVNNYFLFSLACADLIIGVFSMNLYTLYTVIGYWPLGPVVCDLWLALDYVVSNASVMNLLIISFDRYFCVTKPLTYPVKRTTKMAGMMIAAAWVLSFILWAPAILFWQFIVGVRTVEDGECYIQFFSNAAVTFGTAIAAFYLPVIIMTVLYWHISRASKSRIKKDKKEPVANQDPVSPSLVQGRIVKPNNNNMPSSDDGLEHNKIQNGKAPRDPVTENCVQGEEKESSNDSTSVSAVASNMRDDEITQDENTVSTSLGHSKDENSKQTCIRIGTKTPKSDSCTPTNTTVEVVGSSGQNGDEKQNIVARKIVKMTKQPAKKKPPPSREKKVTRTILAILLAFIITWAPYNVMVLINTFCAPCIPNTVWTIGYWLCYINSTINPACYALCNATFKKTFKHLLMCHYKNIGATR

[5] = target: Voltage-dependent L-type calcium channel subunit alpha-1C (Rattus norvegicus, UniProt P22002); type: functional
[6] = target: T4, Neuropeptide Y receptor type 1 (Homo sapiens, UniProt P25929)
T4 sequence (P25929 whole entry): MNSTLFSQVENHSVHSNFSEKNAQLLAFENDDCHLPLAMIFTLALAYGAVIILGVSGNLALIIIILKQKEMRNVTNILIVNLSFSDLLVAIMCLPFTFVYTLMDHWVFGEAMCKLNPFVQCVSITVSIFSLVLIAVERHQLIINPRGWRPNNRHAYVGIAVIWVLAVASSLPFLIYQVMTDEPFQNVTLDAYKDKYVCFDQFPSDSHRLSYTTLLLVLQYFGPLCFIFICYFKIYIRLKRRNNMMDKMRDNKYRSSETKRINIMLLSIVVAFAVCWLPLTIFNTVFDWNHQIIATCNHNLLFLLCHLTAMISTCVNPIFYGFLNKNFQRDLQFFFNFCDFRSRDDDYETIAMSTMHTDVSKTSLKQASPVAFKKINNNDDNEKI

[7] = target: T3, Muscarinic acetylcholine receptor M2; type: functional, cell-based; remark: listed apart in the source
[8] = target: T5, 5-hydroxytryptamine receptor 1A (Homo sapiens, UniProt P08908); type: functional, cell-based
T5 sequence (P08908 whole entry): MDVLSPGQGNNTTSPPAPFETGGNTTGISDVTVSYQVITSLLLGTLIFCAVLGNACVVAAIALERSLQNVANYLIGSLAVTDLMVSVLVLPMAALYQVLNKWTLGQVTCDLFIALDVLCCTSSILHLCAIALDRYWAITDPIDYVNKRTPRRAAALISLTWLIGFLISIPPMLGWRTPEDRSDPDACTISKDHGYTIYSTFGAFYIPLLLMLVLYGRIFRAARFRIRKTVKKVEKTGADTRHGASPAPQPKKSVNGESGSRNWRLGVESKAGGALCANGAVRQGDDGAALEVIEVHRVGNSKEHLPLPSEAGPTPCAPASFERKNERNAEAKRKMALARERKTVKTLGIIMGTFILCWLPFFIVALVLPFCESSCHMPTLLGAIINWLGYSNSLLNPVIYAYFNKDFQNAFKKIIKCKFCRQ
Also: assay procedure not described here.

Chain of Voltage-gated inwardly rectifying potassium channel KCNH2 (Q12809 whole entry): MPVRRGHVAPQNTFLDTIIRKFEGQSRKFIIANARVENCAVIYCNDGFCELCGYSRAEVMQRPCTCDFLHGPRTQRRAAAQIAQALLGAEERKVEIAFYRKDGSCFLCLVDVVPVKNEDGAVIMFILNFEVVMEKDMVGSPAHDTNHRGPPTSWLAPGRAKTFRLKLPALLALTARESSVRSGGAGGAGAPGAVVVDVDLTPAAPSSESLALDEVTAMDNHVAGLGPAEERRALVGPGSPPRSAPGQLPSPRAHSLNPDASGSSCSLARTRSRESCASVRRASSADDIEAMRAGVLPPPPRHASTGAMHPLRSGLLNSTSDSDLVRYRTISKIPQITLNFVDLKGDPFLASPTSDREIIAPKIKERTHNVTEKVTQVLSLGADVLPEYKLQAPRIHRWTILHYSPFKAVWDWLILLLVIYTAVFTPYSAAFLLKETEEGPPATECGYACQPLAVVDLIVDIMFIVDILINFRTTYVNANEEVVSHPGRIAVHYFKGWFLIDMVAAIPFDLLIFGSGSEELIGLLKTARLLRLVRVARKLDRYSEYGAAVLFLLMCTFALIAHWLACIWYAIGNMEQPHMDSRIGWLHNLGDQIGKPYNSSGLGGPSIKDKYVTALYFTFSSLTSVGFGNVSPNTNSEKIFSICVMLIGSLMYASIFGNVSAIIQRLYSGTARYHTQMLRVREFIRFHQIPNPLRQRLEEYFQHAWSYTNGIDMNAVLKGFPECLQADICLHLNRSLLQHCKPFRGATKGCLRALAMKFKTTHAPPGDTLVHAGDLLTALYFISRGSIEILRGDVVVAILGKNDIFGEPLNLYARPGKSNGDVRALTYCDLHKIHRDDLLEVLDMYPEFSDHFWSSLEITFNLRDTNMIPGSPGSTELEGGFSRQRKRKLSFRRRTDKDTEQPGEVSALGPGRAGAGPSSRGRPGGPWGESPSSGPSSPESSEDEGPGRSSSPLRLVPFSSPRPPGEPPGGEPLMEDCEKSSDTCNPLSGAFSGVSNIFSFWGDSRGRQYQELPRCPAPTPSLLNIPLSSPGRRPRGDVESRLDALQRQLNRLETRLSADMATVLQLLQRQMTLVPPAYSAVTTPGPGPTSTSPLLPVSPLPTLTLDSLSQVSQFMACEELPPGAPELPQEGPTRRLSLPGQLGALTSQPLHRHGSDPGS
Chain of Voltage-dependent L-type calcium channel subunit alpha-1C (P22002 whole entry): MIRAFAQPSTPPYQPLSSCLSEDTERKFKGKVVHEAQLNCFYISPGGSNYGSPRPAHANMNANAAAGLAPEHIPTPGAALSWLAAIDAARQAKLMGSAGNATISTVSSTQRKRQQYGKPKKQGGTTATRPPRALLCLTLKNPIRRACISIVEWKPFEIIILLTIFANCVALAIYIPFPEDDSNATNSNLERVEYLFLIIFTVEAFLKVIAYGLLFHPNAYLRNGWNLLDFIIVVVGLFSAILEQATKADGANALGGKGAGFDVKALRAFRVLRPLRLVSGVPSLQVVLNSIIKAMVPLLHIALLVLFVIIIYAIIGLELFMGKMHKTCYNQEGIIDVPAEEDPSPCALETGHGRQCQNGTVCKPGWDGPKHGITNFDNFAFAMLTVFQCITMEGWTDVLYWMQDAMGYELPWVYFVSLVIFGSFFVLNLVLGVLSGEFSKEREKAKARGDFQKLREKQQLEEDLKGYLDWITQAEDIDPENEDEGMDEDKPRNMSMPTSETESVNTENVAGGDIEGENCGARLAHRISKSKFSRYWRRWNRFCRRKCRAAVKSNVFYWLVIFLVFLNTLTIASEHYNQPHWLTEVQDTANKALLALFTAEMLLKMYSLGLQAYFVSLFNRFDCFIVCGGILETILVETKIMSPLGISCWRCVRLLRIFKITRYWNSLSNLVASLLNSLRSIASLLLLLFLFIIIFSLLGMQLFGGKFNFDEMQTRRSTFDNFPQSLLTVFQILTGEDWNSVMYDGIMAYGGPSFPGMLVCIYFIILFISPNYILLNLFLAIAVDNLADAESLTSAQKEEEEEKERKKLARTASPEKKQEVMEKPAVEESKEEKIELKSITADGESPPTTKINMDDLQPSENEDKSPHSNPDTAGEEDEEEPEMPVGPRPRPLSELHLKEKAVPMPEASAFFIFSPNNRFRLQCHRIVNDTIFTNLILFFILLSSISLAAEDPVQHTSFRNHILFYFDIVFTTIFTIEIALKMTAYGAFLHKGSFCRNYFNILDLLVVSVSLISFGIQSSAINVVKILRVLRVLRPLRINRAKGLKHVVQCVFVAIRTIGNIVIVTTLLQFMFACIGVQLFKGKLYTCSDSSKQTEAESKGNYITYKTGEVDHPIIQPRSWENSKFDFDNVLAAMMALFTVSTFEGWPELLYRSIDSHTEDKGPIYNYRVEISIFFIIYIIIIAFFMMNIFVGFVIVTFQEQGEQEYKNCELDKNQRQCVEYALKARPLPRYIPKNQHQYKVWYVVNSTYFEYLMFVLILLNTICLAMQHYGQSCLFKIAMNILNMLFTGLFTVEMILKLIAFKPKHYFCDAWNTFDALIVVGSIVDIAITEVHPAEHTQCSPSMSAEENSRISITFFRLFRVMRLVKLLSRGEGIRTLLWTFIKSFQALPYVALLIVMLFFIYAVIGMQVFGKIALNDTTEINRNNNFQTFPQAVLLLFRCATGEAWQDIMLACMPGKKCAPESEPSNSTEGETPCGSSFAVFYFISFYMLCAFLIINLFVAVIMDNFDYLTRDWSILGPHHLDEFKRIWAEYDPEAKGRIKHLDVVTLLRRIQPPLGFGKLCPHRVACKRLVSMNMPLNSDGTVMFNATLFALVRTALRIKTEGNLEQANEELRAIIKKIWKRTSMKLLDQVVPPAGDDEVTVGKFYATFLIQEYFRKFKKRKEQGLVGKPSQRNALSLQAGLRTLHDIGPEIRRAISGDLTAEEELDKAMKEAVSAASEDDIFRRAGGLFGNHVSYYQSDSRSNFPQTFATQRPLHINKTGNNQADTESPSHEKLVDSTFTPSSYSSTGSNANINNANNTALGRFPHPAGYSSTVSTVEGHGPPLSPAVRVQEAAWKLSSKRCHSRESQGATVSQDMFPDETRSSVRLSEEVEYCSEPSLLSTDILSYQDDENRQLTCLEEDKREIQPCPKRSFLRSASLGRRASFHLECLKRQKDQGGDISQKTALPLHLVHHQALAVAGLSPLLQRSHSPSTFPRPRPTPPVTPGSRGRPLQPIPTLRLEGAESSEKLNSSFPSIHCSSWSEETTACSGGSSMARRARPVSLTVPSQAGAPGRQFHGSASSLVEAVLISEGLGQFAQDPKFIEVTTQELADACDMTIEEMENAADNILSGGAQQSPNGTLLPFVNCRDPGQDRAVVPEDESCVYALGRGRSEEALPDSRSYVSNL
Chain of Gamma-aminobutyric acid receptor subunit alpha-1 (P62813 whole entry): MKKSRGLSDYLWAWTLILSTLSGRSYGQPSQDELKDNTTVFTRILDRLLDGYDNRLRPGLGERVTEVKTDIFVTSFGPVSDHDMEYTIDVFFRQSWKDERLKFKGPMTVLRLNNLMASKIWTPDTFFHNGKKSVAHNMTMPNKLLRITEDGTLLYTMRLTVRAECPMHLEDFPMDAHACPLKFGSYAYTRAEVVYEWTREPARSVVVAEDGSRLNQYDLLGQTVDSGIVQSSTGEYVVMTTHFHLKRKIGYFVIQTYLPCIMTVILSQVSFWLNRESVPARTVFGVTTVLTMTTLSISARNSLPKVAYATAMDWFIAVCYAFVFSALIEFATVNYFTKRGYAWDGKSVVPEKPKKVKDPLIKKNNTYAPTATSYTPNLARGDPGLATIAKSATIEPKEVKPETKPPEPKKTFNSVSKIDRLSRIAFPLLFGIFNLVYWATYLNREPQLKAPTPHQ
Chain of 3',5'-cyclic-AMP phosphodiesterase 4D (Q08499 whole entry): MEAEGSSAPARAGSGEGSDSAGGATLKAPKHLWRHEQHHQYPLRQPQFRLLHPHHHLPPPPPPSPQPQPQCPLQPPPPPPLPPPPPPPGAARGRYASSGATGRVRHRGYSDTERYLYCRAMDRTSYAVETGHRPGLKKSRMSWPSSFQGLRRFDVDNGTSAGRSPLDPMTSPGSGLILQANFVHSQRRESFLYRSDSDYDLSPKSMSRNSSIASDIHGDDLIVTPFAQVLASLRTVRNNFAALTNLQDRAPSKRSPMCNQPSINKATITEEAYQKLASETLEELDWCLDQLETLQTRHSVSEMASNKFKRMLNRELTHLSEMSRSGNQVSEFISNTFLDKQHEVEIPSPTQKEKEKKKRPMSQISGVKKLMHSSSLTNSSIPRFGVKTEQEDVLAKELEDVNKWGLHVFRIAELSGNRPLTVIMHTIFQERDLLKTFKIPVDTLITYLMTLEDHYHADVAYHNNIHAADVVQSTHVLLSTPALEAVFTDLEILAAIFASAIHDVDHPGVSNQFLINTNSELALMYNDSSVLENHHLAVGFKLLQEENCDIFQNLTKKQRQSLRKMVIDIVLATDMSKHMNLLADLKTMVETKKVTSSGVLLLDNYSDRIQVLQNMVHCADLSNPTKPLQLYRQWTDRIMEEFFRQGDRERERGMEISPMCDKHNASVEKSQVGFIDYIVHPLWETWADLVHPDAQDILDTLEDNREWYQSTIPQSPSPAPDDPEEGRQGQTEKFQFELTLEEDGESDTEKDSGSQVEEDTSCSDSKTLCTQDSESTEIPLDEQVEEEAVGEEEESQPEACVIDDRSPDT

Molecule	AC50 (Glucocorticoid receptor)	AC50 [1]	AC50 [2]	AC50 ([3]; read-out: AC50)	AC50 (Adenosine receptor A3)	AC50 [4]	AC50 [5]	AC50 [6]	AC50 [7]	AC50 [8]	AC50 ([3]; human, cellular components)
Fc1ccc(C(c2ccccc2)(c2ccccc2F)n2ccnc2)cc1 (stereo not drawn) [FLUTRIMAZOLE]	> 30 µM	> 30 µM	> 30 µM	1.68 µM	15 µM	> 30 µM	> 30 µM	> 30 µM	> 30 µM		
COc1ccc2c3c1O[C@H]1[C@@H](O)CC[C@H]4[C@@H](C2)N(C)CC[C@@]341 [DIHYDROCODEINE]		> 30 µM	> 30 µM	> 30 µM						> 30 µM	
CC(C)(C)NCC(O)COc1cccc2c1CCC(=O)N2 (stereo not drawn) [CARTEOLOL]	> 10 µM	> 30 µM	> 10 µM	> 30 µM	> 10 µM	> 10 µM	> 10 µM	> 10 µM	> 10 µM	8.8 µM	
CO[C@]12C[C@@H](COC(=O)c3cncc(Br)c3)CN(C)[C@@H]1Cc1cn(C)c3cccc2c13 [NICERGOLINE]				0.13 µM							
C[C@@H]1O[C@@H](O[C@@H]2C=C3CC[C@@H]4[C@H](CC[C@]5(C)[C@@H](c6ccc(=O)oc6)CC[C@]45O)[C@@]3(C)CC2)[C@H](O)[C@H](O)[C@H]1O [PROSCILLARIDIN]	> 30 µM	> 30 µM	> 30 µM	> 30 µM	> 30 µM	> 30 µM	> 30 µM	> 30 µM	> 30 µM	> 30 µM	
Clc1ccccc1C(c1ccccc1)(c1ccccc1)n1ccnc1 [CLOTRIMAZOLE]			> 10 µM			> 10 µM	13.6 µM		> 10 µM	> 10 µM	
Brc1c(NC2=NCCN2)ccc2nccnc12 [BRIMONIDINE]	> 30 µM	> 30 µM	> 30 µM	> 30 µM	> 30 µM	> 30 µM		> 30 µM	> 30 µM		
Cc1cc(C(C)(C)C)c(O)c(C)c1CC1=NCCN1 [OXYMETAZOLINE]		> 30 µM		> 30 µM	> 30 µM	23 µM			> 30 µM		
Nc1nc(Cl)nc2c1ncn2[C@H]1C[C@H](O)[C@@H](CO)O1 [CLADRIBINE]	> 30 µM	0.97 µM	> 30 µM	> 30 µM	> 30 µM	> 30 µM		> 30 µM	> 30 µM	> 30 µM	
O=C1C(O)=C([C@H]2CC[C@H](c3ccc(Cl)cc3)CC2)C(=O)c2ccccc21 [ATOVAQUONE]		> 30 µM	> 30 µM	> 30 µM	> 30 µM	> 30 µM	> 30 µM	> 30 µM	> 30 µM	> 30 µM	
COc1cccc(C2(O)CCCCC2CN(C)C)c1 (stereo not drawn) [TRAMADOL]	> 30 µM	> 30 µM	> 10 µM	> 30 µM	> 30 µM		> 10 µM	> 30 µM		> 10 µM	
CC1(C)CCC(CN2CCN(c3ccc(C(=O)NS(=O)(=O)c4ccc(NCC5CCOCC5)c([N+](=O)[O-])c4)c(Oc4cnc5[nH]ccc5c4)c3)CC2)=C(c2ccc(Cl)cc2)C1 [VENETOCLAX]		> 30 µM		> 30 µM	2.3 µM						
THIMEROSAL											> 30 µM
NC(=O)OCC(COC(N)=O)c1ccccc1 [FELBAMATE]	> 10 µM	> 30 µM	> 10 µM	> 30 µM	> 10 µM	> 10 µM	> 10 µM	> 10 µM	> 10 µM	> 10 µM	
CC/C(=C(\c1ccccc1)c1ccc(OCCN(C)C)cc1)c1ccccc1 [TAMOXIFEN]			> 10 µM			> 10 µM	> 10 µM		> 10 µM	> 10 µM	
C[C@H]1COc2c(C3(N)CC3)c(F)cc3c(=O)c(C(=O)O)cn1c23 [PAZUFLOXACIN]	> 30 µM	> 30 µM	> 10 µM	> 30 µM	> 10 µM	> 10 µM	> 10 µM	> 10 µM	> 10 µM	> 10 µM	
C#C[C@]1(O)CC[C@H]2[C@@H]3[C@H](C)CC4=C(CCC(=O)C4)[C@H]3CC[C@@]21C [TIBOLONE]		6.9 µM	> 30 µM	> 30 µM	8.1 µM	> 30 µM	> 30 µM	> 30 µM	> 30 µM	> 30 µM	
Cc1c(OCC(F)(F)F)ccnc1C[S+]([O-])c1nc2ccccc2[nH]1 (stereo not drawn) [LANSOPRAZOLE]	> 30 µM	> 10 µM	> 10 µM	> 30 µM	7.77 µM	> 10 µM	> 10 µM	24.5 µM	> 10 µM	> 10 µM	
CC(CC1c2ccccc2CCc2ccccc21)CN(C)C (stereo not drawn) [BUTRIPTYLINE]		> 30 µM	> 30 µM	2.1 µM						> 30 µM	
NC(=O)CN1CC(O)CC1=O (stereo not drawn) [OXIRACETAM]	> 30 µM	> 30 µM	> 30 µM	> 30 µM	> 30 µM	> 30 µM		> 30 µM	> 30 µM	> 30 µM	
Cc1nnc2n1-c1ccc(Cl)cc1C(c1ccccc1Cl)=NC2 [TRIAZOLAM]	> 30 µM	33 µM	> 10 µM	> 30 µM	> 30 µM	> 10 µM	> 10 µM	> 30 µM	> 10 µM	> 10 µM	
COc1ccc(CCNCC(O)COc2cccc(C)c2)cc1OC (stereo not drawn) [BEVANTOLOL]	> 10 µM	> 30 µM	> 10 µM	3.41 µM	> 10 µM	> 10 µM	> 10 µM	> 10 µM	> 10 µM		
